Our source for the IC50 values is US9242996B2 (Novartis AG, priority 2013, dated 2016).

Sequence of activated ERK2 (P28482 whole entry): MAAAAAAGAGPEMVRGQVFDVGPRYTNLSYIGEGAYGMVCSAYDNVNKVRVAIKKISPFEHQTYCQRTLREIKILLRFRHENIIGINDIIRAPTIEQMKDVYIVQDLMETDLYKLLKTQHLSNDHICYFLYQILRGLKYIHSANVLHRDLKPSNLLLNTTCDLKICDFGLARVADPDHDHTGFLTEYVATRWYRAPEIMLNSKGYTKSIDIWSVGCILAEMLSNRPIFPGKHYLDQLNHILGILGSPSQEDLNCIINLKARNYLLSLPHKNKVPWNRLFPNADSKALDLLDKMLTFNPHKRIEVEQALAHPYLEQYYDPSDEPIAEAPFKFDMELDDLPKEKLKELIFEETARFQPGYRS

This experiment has as its target activated ERK2 (Homo sapiens (Human), UniProt P28482). Put plainly: Activated ERK2 (20 pM) Kinase Assay (AlphaScreen, ERKtide phosphorylation). The class given is biochemical. The conditions noted are these: 0.02 nM ERK2, 400 nM ERKtide peptide, 35 μM ATP, 30 min preincubation. In a few lines: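 AlphaScreen read-out (anti-phospho-EGFR Thr669 antibody, protein A acceptor/streptavidin donor beads) of ERKtide (400 nM) phosphorylation by 20 pM activated ERK2 at 35 μM ATP.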
In general terms: Bead proximity is the source of the signal in Alpha formats.
Broadly, the IC50 is the concentration that gives 50% inhibition. The compound `Nc1ncc(C2CCOCC2)nc1-c1ccc(C(=O)N[C@H](CO)c2cc(F)cc(C(F)F)c2)c(F)c1` [Example 335, (S)-4-(3-amino-6-(tetrahydro-2H-pyran-4-yl)pyrazin-2-yl)-N-(1-(3-(difluoromethyl)-5-fluorophenyl)-2-hydroxyethyl)-2-fluorobenzamide] returned an IC50 of 0.0208 nM.
Regarding `CNC[C@@H](NC(=O)c1ccc(-c2nc(C3CCOCC3)cnc2N)cc1F)c1cc(F)cc(Cl)c1` [Example 336, (S)-4-(3-amino-6-(tetrahydro-2H-pyran-4-yl)pyrazin-2-yl)-N-(1-(3-chloro-5-fluorophenyl)-2-(methylamino)ethyl)-2-fluorobenzamide], the IC50 was determined as 0.0143 nM. This IC50 and that of the compound before are within 1.5-fold of each other.
On to `Nc1ncc([C@H]2CC[C@H](O)CC2)nc1-c1ccc(C(=O)N[C@H](CO)c2cc(F)cc(C(F)F)c2)c(F)c1` [Example 337, 4-(3-amino-6-((1r,4S)-4-hydroxycyclohexy)pyrazin-2-yl)-N-((S)-1-(3-(difluoromethyl)-5-fluorophenyl)-2-hydroxyethyl)-2-fluorobenzamide], for which the IC50 amounted to 0.0435 nM.
`Nc1ncc([C@H]2CC[C@H](O)CC2)nc1-c1ccc(C(=O)N[C@H](CO)c2cccc(C(F)(F)F)c2)c(F)c1` [Example 340, 4-(3-amino-6-((1r,4S)-4-hydroxy-cyclohexyl)pyrazin-2-yl)-2-fluoro-N-((S)-2-hydroxy-1-(3-(trifluoromethyl)phenyl)ethyl) benzamide]: the IC50 was determined as 187 nM.
For the compound `Nc1ncc([C@H]2CC[C@@H](O)CC2)nc1-c1ccc(C(=O)N[C@H](CO)c2cccc(C(F)(F)F)c2)c(F)c1` [Example 341, 4-(3-amino-6-((1s,4R)-4-hydroxy-cyclohexyl)pyrazin-2-yl)-2-fluoro-N-((S)-2-hydroxy-1-(3-(trifluoromethyl)phenyl)ethyl) benzamide], the IC50 is 1050 nM.
As to `NC[C@@H](NC(=O)c1ccc(-c2nc([C@H]3CC[C@H](O)CC3)cnc2N)cc1F)c1cc(F)cc(Br)c1` [Example 342, N-((S)-2-amino-1-(3-bromo-5-fluorophenyl)ethyl)-4-(3-amino-6-((1r,4S)-4-hydroxycyclohexyl)pyrazin-2-yl)-2-fluorobenzamide], half-maximal inhibition (IC50) required 0.0173 nM. This IC50 lies about 61000-fold lower than the previous one.
`NC[C@@H](NC(=O)c1ccc(-c2nc([C@H]3CC[C@H](O)CC3)cnc2N)cc1F)c1cccc(I)c1` [Example 343, N-((S)-2-amino-1-(3-iodophenyl)ethyl)-4-(3-amino-6-((1r,4S)-4-hydroxy-cyclohexyl)pyrazin-2-yl)-2-fluorobenzamide] yielded an IC50 of 0.011 nM.
Consider `Nc1ncc([C@H]2CC[C@H](O)CC2)nc1-c1ccc(C(=O)N[C@H](CO)c2cc(F)cc(I)c2)c(F)c1` [Example 344, 4-(3-amino-6-((1r,4S)-4-hydroxy-cyclohexyl)pyrazin-2-yl)-2-fluoro-N-((S)-1-(3-fluoro-5-iodophenyl)-2-hydroxyethyl) benzamide], for which the IC50 turned out to be 0.00977 nM.
Compound `Nc1ncc([C@H]2CC[C@@H](O)CC2)nc1-c1ccc(C(=O)N[C@H](CO)c2cc(F)cc(I)c2)c(F)c1` [Example 345, 4-(3-amino-6-((1s,4R)-4-hydroxy-cyclohexyl)pyrazin-2-yl)-2-fluoro-N-((S)-1-(3-fluoro-5-iodophenyl)-2-hydroxyethyl) benzamide] registered an IC50 of 0.0956 nM.
With `Nc1ncc([C@H]2CC[C@H](O)CC2)nc1-c1ccc(C(=O)N[C@H](CO)c2cccc(I)c2)c(F)c1` [Example 346, 4-(3-amino-6-((1r,4S)-4-hydroxy-cyclohexyl)pyrazin-2-yl)-2-fluoro-N-((S)-2-hydroxy-1-(3-iodophenyl)ethyl) benzamide], the IC50 was determined as 0.0175 nM.
As for `Nc1ncc([C@H]2CC[C@@H](O)CC2)nc1-c1ccc(C(=O)N[C@H](CO)c2cccc(I)c2)c(F)c1` [Example 347, 4-(3-amino-6-((1s,4R)-4-hydroxy-cyclohexyl)pyrazin-2-yl)-2-fluoro-N-((S)-2-hydroxy-1-(3-iodophenyl)ethyl) benzamide], 0.193 nM corresponded to half-maximal inhibition (IC50). This IC50 lies about 11-fold higher than the previous one.
`CNC[C@@H](NC(=O)c1ccc(-c2nc([C@@H]3CC[C@@H](O)[C@@H](F)C3)cnc2N)cc1F)c1cc(F)cc(Br)c1` [Example 355, 4-(3-amino-6-((1R,3S,4R)-3-fluoro-4-hydroxy-cyclohexyl)pyrazin-2-yl)-N-((S)-1-(3-bromo-5-fluorophenyl)-2-(methylamino)ethyl)-2-fluorobenzamide]: half-maximal inhibition (IC50) was put at 0.023 nM.
The figure for `CNC[C@@H](NC(=O)c1ccc(-c2nc([C@H]3CC[C@H](O)[C@H](F)C3)cnc2N)cc1F)c1cc(F)cc(Br)c1` [Example 356, 4-(3-amino-6-((1S,3R,4S)-3-fluoro-4-hydroxy-cyclohexyl)pyrazin-2-yl)-N-((S)-1-(3-bromo-5-fluorophenyl)-2-(methylamino)ethyl)-2-fluorobenzamide] is 0.0317 nM; for `CNC[C@@H](NC(=O)c1ccc(-c2nc([C@H]3CC[C@H](O)[C@@H](F)C3)cnc2N)cc1F)c1cc(F)cc(I)c1` [Example 357, 4-(3-amino-6-((1S,3S,4S)-3-fluoro-4-hydroxy-cyclohexyl)pyrazin-2-yl)-2-fluoro-N-((S)-1-(3-fluoro-5-iodophenyl)-2-(methylamino)ethyl)benzamide] it is 0.0143 nM; for `CNC[C@@H](NC(=O)c1ccc(-c2nc([C@@H]3CC[C@@H](O)[C@H](F)C3)cnc2N)cc1F)c1cc(F)cc(I)c1` [Example 358, 4-(3-amino-6-((1R,3R,4R)-3-fluoro-4-hydroxy-cyclohexyl)pyrazin-2-yl)-2-fluoro-N-((S)-1-(3-fluoro-5-iodophenyl)-2-(methylamino)ethyl)benzamide] it is 0.0205 nM.
The figure for `CNC[C@@H](NC(=O)c1ccc(-c2nc([C@@H]3CC[C@@H](O)[C@H](F)C3)cnc2N)cc1F)c1cccc(Br)c1` [Example 359, 4-(3-amino-6-((1R,3R,4R)-3-fluoro-4-hydroxy-cyclohexyl)pyrazin-2-yl)-N-((S)-1-(3-bromophenyl)-2-(methylamino)ethyl)-2-fluorobenzamide] is 0.076 nM; for `CNC[C@@H](NC(=O)c1ccc(-c2nc([C@H]3CC[C@H](O)CC3)cnc2N)cc1F)c1cc(F)cc(I)c1` [Example 360, 4-(3-amino-6-((1r,4S)-4-hydroxy-cyclohexyl)pyrazin-2-yl)-2-fluoro-N-((S)-1-(3-fluoro-5-iodophenyl)-2-(methylamino)ethyl)benzamide] it is 0.00665 nM.
Compound `CNC[C@@H](NC(=O)c1ccc(-c2nc([C@@H]3CC[C@@H](O)[C@H](F)C3)cnc2N)cc1F)c1cc(F)cc(Br)c1` [Example 361, 4-(3-amino-6-((1R,3R,4R)-3-fluoro-4-hydroxy-cyclohexyl)pyrazin-2-yl)-N-((S)-1-(3-bromo-5-fluorophenyl)-2-(methylamino)ethyl)-2-fluorobenzamide] registered an IC50 of 0.104 nM. Against the preceding compound, the IC50 is about 16-fold higher.
`CNC[C@@H](NC(=O)c1ccc(-c2nc(C3CCOCC3)cnc2N)cc1F)c1cc(F)cc(Br)c1` [Example 365, (S)-4-(3-amino-6-(tetrahydro-2H-pyran-4-yl)pyrazin-2-yl)-N-(1-(3-bromo-5-fluorophenyl)-2-(methylamino)ethyl)-2-fluorobenzamide]: the IC50 came out at 0.0208 nM.
For `CCNC[C@@H](NC(=O)c1ccc(-c2nc(C3CCOCC3)cnc2N)cc1F)c1cc(F)cc(Br)c1` [Example 371, (S)-4-(3-amino-6-(tetrahydro-2H-pyran-4-yl)pyrazin-2-yl)-N-(1-(3-bromo-5-fluorophenyl)-2-(ethylamino)ethyl)-2-fluorobenzamide], the IC50 was found to be 0.03 nM.
Consider `NC[C@@H](NC(=O)c1ccc(-c2nc([C@H]3CC[C@H](O)CC3)cnc2N)cc1F)c1cc(F)cc(I)c1` [Example 373, N-((S)-2-amino-1-(3-fluoro-5-iodophenyl)ethyl)-4-(3-amino-6-((1r,4S)-4-hydroxy-cyclohexyl)pyrazin-2-yl)-2-fluorobenzamide], for which the IC50 is 0.00837 nM.
Compound `CNC[C@@H](NC(=O)c1ccc(-c2nc([C@H]3CC[C@H](OC)CC3)cnc2N)cc1F)c1cc(F)cc(Br)c1` [Example 374, 4-(3-amino-6-((1r,4S)-4-methoxy-cyclohexyl)pyrazin-2-yl)-N-((S)-1-(3-bromo-5-fluorophenyl)-2-(methylamino)ethyl)-2-fluorobenzamide] showed an IC50 of 0.0205 nM.
For the compound `CNC[C@@H](NC(=O)c1ccc(-c2nc([C@H]3CC[C@H](OC)CC3)cnc2N)cc1F)c1cccc(Br)c1` [Example 375, 4-(3-amino-6-((1r,4S)-4-methoxy-cyclohexyl)pyrazin-2-yl)-N-((S)-1-(3-bromophenyl)-2-(methylamino)ethyl)-2-fluorobenzamide], 0.0401 nM corresponded to half-maximal inhibition (IC50).
`CNC[C@@H](NC(=O)c1ccc(-c2nc([C@H]3CC[C@H](O)CC3)cnc2N)cc1F)c1cc(F)cc(Br)c1` [Example 376, 4-(3-amino-6-((1r,4S)-4-hydroxy-cyclohexyl)pyrazin-2-yl)-N-((S)-1-(3-bromo-5-fluorophenyl)-2-(methylamino)ethyl)-2-fluorobenzamide] yielded an IC50 of 0.0183 nM. Against the preceding compound, the IC50 is about 2.2-fold lower.
Regarding `CNC[C@@H](NC(=O)c1ccc(-c2nc([C@H]3CC[C@H](OC)CC3)cnc2N)cc1F)c1cccc(Cl)c1` [Example 377, 4-(3-amino-6-((1r,4S)-4-methoxy-cyclohexyl)pyrazin-2-yl)-N-((S)-1-(3-chlorophenyl)-2-(methylamino)ethyl)-2-fluorobenzamide], inhibition was half-maximal at 0.07 nM (IC50).
The figure for `CCNC[C@@H](NC(=O)c1ccc(-c2nc(C3CCOCC3)cnc2N)cc1F)c1cccc(Br)c1` [Example 378, (S)-4-(3-amino-6-(tetrahydro-2H-pyran-4-yl)pyrazin-2-yl)-N-(1-(3-bromophenyl)-2-(ethylamino)ethyl)-2-fluorobenzamide] is 0.0248 nM; for `CCNC[C@@H](NC(=O)c1ccc(-c2nc([C@H]3CC[C@H](O)CC3)cnc2N)cc1F)c1cccc(Br)c1` [Example 379, 4-(3-amino-6-((1r,4S)-4-hydroxy-cyclohexyl)pyrazin-2-yl)-N-((S)-1-(3-bromophenyl)-2-(ethylamino)ethyl)-2-fluorobenzamide] it is 0.0617 nM.
